According to patent US8598159B2, “Therapeutic pyrazoloquinoline derivatives” (Dart Neuroscience (Cayman) Ltd., priority 2007, dated 2013):

How the values were obtained:
GABAA receptors = test: Electrophysiology assay (two-electrode voltage clamp, Xenopus oocytes expressing GABAA receptors); type: cell-based; conditions: positive (Pos) or negative (Neg) modulation of current at GABA EC20, screening concentration of 10 μM
Protocol: The modulation of GABAA function is determined by changes in current as determined in an electrophysiology assay, as is detailed below.
mRNA was prepared from lyophilized plasmid pellets containing cDNA inserts encoding the specific GABAA receptor subunit. cDNAs encoding the α2, α3, and γ3 subunits were subcloned into pBluescript, SK^−. cDNAs encoding the a 1 and a 5 subunits were subcloned into prC while cDNA encoding the β2 subunit was subcloned into pcDNA1. The cDNA construct encoding the g 2s subunit is in the pGH19 expression construct. Overnight cultures of transformed DH5a bacterial cells were performed to grow sufficient quantities for maxiprep isolation of the plasmid cDNA. The resulting plasmid cDNA was linearized by digestion with an appropriate restriction enzyme that cleaves distal to the cDNA insert [XbaI (α1, β2), NotI (α3, γ2 s), SacII (α2), or ApaI (α5)]. Following digestion, plasmid cDNA was treated with proteinase K and extracted with phenol/chloroform/isoamyl alcohol, followed by ethanol precipitation. cDNA quality was assessed by agarose-gel electrophoresis (1.5% agarose gel). Samples were stored at −20° C. until use. In vitro transcription was performed with T7 RNA polymerase. mRNA was then stored at −80° C. until use. Plasmids were linearized with appropriate restriction enzymes before in vitro transcription using the Message Machine kit (Ambion, Austin, Tex.).
GABAA receptor expression in Xenopus oocytes: Following 45 min of 0.15% Tricaine anesthesia, an ovarian section containing the follicular oocytes was removed from the frog through a lateral abdominal incision. Oocytes were immediately placed in a calcium-free solution (NaCl 96 mM, MgCl2 1 mM, KCl 2 mM, Hepes 50 mM, pyruvate 2.5 mM, gentamycin 100 μg/mL, penicillin-streptomycin 50 U/mL, pH 7.4). Following 1.5-2 hour incubation in 0.2% collagenase (type II, Sigma Chemical Co., St. Louis, Mo.) at room temperature, individual Dumont stage V and VI oocytes were transferred to an incubator and maintained overnight in Barth's solution (NaCl 84 mM, NaHCO3 2.4 mM, MgSO4 0.82 mM, KCl 1 mM, Ca(NO3)2 0.33 mM, CaCl2 0.41 mM, Tris/HCl 7.5 mM, pyruvate 2.5 mM, gentamycin 50 μg/mL, penicillin-streptomycin, 100 units/mL, pH 7.4) at 18-20° C. and used for experiments 1-5 days post-injection. Oocytes were injected solution using an electronic microinjector (Drummond, Broomall, Pa.) with 50 nL of RNA containing 0.3-0.5 ng of each subunit RNA in a 1:1:2 ratio. The injected oocytes were used for experiments after 1-5 days of incubation in Barth's solution at 18-20° C.
Measurements of ion currents from oocytes expressing GABAA receptors were performed using a Warner two-electrode voltage-clamp amplifier (Warner Instruments, Inc., Foster City, Calif.) (Park-Chung, M. A., et al. (1999) Brain Res. 830: 72-87 incorporated herein in its entirety). Microelectrodes were fabricated from borosilicate glass capillaries with a programmed pipette puller (Sutter Instrument Co., CA). Microelectrode resistance was 1-3 MΩ when filled with 3 M KCl. The oocyte recording chamber was continuously perfused with ND-96 solution. Oocytes were clamped at a holding potential of −70 mV during data acquisition. The membrane current was filtered at 10 Hz and sampled at 100 Hz. Compounds were applied by a gravity-driven external perfusion system. The working volume of the recording chamber was […] and the rate of the perfusion was approximately […]. Compound application was 20-25 sec followed by a minimum of 150 sec wash. Data acquisition and external perfusion was computer controlled by custom-developed software. All experiments were performed at room temperature (22-24° C.). Dose-response data from each oocyte were fitted to the Hill equation by non-linear regression using the equation: IGABA=Emax/(1+(EC50/c)nH)
Emax is the maximum response, EC50 is the concentration producing 50% of the maximal response, nH is the Hill coefficient and c is the concentration of agonist. […]

[1] = molecular target: GABAA central benzodiazepine receptor; test: Benzodiazepine binding assay ((3H)-flunitrazepam displacement); conditions: read-out: BZ binding assay (IC50); rat whole brain (except cerebellum), 1 nM (3H)-flunitrazepam, 60 minutes at 25° C.; 3-concentration dose response curve

| Compound | EP Result (GABAA receptors) | IC50 [1] [nM] |
| --- | --- | --- |
| CN1CCN(c2ccc3[nH]cc4c(=O)n(-c5ccc(Cl)cc5)nc-4c3c2)CC1 [7d, 2-(4′-Chlorophenyl)-8-(4-methylpiperazin-1-yl)-2,5-dihydro-pyrazolo[4,3-c]quinolin-3-one] | Pos | < 1000 |
| COc1ccc(-n2nc3c4cc(N5CCNCC5)ccc4[nH]cc-3c2=O)cc1 [7e, 2-(4′-Methoxyphenyl)-8-piperazin-1-yl-2,5-dihydro-pyrazolo[4,3-c]quinolin-3-one] | Pos | < 1000 |
| COc1ccc(-n2nc3c4cc(N5CCN(C)CC5)ccc4[nH]cc-3c2=O)cc1 [7f, 2-(4′-Methoxyphenyl)-8-(4-methylpiperazin-1-yl)-2,5-dihydro-pyrazolo[4,3-c]quinolin-3-one] | Pos | < 1000 |
| O=c1c2c[nH]c3cc(N4CCNCC4)ccc3c-2nn1-c1ccccc1 [14a, 2-Phenyl-7-piperazin-1-yl-2,5-dihydro-pyrazolo[4,3-c]quinolin-3-one] | Neg | > 1000 |
| CN1CCN(c2ccc3c4nn(-c5ccccc5)c(=O)c-4c[nH]c3c2)CC1 [14b, 7-(4-Methylpiperazin-1-yl)-2-phenyl-2,5-dihydro-pyrazolo[4,3-c]quinolin-3-one] | Neg | < 1000 |
| O=c1c2c[nH]c3cc(N4CCNCC4)ccc3c-2nn1-c1ccc(Cl)cc1 [14c, 2-(4′-Chlorophenyl)-7-piperazin-1-yl-2,5-dihydro-pyrazolo[4,3-c]quinolin-3-one] | Neg | < 1000 |
| CN1CCN(c2ccc3c4nn(-c5ccc(Cl)cc5)c(=O)c-4c[nH]c3c2)CC1 [14d, 2-(4-Chlorophenyl)-7-(4-methylpiperazin-1-yl)-2,5-dihydro-pyrazolo[4,3-c]quinolin-3-one] | Neg | < 1000 |
| COc1ccc(-n2nc3c4ccc(N5CCNCC5)cc4[nH]cc-3c2=O)cc1 [14e, 2-(4-Methoxyphenyl)-7-piperazin-1-yl-2,5-dihydro-pyrazolo[4,3-c]quinolin-3-one] | Neg | < 1000 |
| COc1ccc(-n2nc3c4ccc(N5CCN(C)CC5)cc4[nH]cc-3c2=O)cc1 [14f, 2-(4-Methoxyphenyl)-7-(4-methylpiperazin-1-yl)-2,5-dihydro-pyrazolo[4,3-c]quinolin-3-one] | Neg | > 1000 |
| O=c1c2c[nH]c3cc(F)c(N4CCOCC4)cc3c-2nn1-c1ccccc1 [19a, 7-Fluoro-8-morpholin-4-yl-2-phenyl-2,5-dihydro-pyrazolo[4,3-c]quinolin-3-one] | Pos | < 1 |
| CC(C)N1CCN(c2ccc3[nH]cc4c(=O)n(-c5ccccc5)nc-4c3c2)CC1 [19b, 8-(4-Isopropylpiperazin-1-yl)-2-phenyl-2,5-dihydro-pyrazolo[4,3-c]quinolin-3-one] | Pos | < 1000 |
| O=c1c2c[nH]c3ccc(N4CCOCC4)cc3c-2nn1-c1ccccn1 [19c, 8-Morpholin-4-yl-2-pyridin-2-yl-2,5-dihydro-pyrazolo[4,3-c]quinolin-3-one] | Neg | < 1000 |
| O=c1c2c[nH]c3ccc(N4CCOCC4)cc3c-2nn1-c1ccccc1 [19d, 8-Morpholin-4-yl-2-phenyl-2,5-dihydro-pyrazolo[4,3-c]quinolin-3-one] | Neg | < 1000 |
| O=c1c2c[nH]c3ccc(N4CCOCC4)cc3c-2nn1-c1ccccc1F [19e, 2-(2-Fluorophenyl)-8-morpholin-4-yl-2,5-dihydro-pyrazolo[4,3-c]quinolin-3-one] | Neg | < 1000 |
| COCCN1CCN(c2ccc3[nH]cc4c(=O)n(-c5ccccc5)nc-4c3c2)CC1 [19f, 8-[4-(2-Methoxyethyl)-piperazin-1-yl]-2-phenyl-2,5-dihydro-pyrazolo[4,3-c]quinolin-3-one] | Pos | < 1000 |
| O=c1c2c[nH]c3ccc(N4CCCCC4)cc3c-2nn1-c1ccccc1 [19g, 2-Phenyl-8-piperidin-1-yl-2,5-dihydro-pyrazolo[4,3-c]quinolin-3-one] | Pos | < 1000 |
| COc1ccc(-n2nc3c4cc(N5CCN(C(C)C)CC5)ccc4[nH]cc-3c2=O)cc1 [19i, 8-(4-Isopropylpiperazin-1-yl)-2-(4-methoxyphenyl)-2,5-dihydro-pyrazolo[4,3-c]quinolin-3-one] | Pos | < 1000 |
| O=c1c2c[nH]c3cc(Cl)c(N4CCNCC4)cc3c-2nn1-c1ccccc1 [19j, 7-Chloro-2-phenyl-8-piperazin-1-yl-2,5-dihydro-pyrazolo[4,3-c]quinolin-3-one] | Neg | < 1000 |
| O=c1c2c[nH]c3cc(Cl)c(N4CCOCC4)cc3c-2nn1-c1ccccc1 [19k, 7-Chloro-8-morpholin-4-yl-2-phenyl-2,5-dihydro-pyrazolo[4,3-c]quinolin-3-one] | Pos | < 1000 |
| O=c1c2c[nH]c3cc(N4CCOCC4)c(F)cc3c-2nn1-c1ccccc1 [28b, 8-Fluoro-7-morpholin-4-yl-2-phenyl-2,5-dihydro-pyrazolo[4,3-c]quinolin-3-one] | Pos | < 1000 |
| CC(C)N1CCN(c2cc3[nH]cc4c(=O)n(-c5ccccc5)nc-4c3cc2F)CC1 [28c, 8-Fluoro-7-(4-isopropylpiperazin-1-yl)-2-phenyl-2,5-dihydro-pyrazolo [4,3-c]quinolin-3-one] | Pos | < 1000 |
| O=c1c2c[nH]c3cc(N4CCOCC4)c(F)cc3c-2nn1-c1ccccn1 [28d, 8-Fluoro-7-(morpholin-4-yl)-2-pyridin-2-yl-2,5-dihydro-pyrazolo[4,3-c]quinolin-3-one] | Neg | < 1000 |
| CC1CC(C)CN(c2cc3[nH]cc4c(=O)n(-c5ccccc5)nc-4c3cc2F)C1 (centres unmarked) [28e, 7-(3,5-Dimethylpiperidin-1-yl)-8-fluoro-2-phenyl-2,5-dihydro-pyrazolo[4,3-c]quinolin-3-one] | Pos | < 1000 |
| CN1CCN(c2cc3[nH]cc4c(=O)n(-c5ccccn5)nc-4c3cc2F)CC1 [28f, 8-Fluoro-7-(4-methylpiperazin-1-yl)-2-pyridin-2-yl-2,5-dihydro-pyrazolo[4,3-c]quinolin-3-one] | Pos | < 1000 |
| CC1CN(c2cc3[nH]cc4c(=O)n(-c5ccccc5)nc-4c3cc2F)CC(C)O1 (centres unmarked) [28g, 7-(2,6-Dimethylmorpholin-4-yl)-8-fluoro-2-phenyl-2,5-dihydro-pyrazolo[4,3-c]quinolin-3-one] | Pos | < 1000 |
| O=c1c2c[nH]c3cc(N4CCOCC4)ccc3c-2nn1-c1ccccc1 [28h, 7-Morpholin-4-yl-2-phenyl-2,5-dihydro-pyrazolo[4,3-c]quinolin-3-one] | Pos | < 1000 |
| O=c1c2c[nH]c3cc(N4CCNCC4)c(F)cc3c-2nn1-c1ccsc1 [28p, 8-fluoro-7-(piperazin-1-yl)-2-(thiophen-3-yl)-2,5-dihydro-pyrazolo[4,3-c]quinolin-3-one] | Neg | < 1000 |
| O=c1c2c[nH]c3c(F)c(N4CCNCC4)c(F)cc3c-2nn1-c1ccccc1 [44a, 6,8-Difluoro-2-phenyl-7-piperazin-1-yl-2,5-dihydro-pyrazolo[4,3-c]quinolin-3-one] | Neg | < 1000 |
